Results: patent US8840934B2 (Rainbow Pharmaceutical SA, priority 2009, dated 2014)

What was measured:
IL-6 = assay: Serum IL-6 (ELISA) in TAA-treated Quinster rats given ammonium chloride per os; assay type: in vivo; details: 12 hours post the third TAA injection, mean ± SD
Method: (§1) Thioacetamid (TAA) was given to adult male Quinster rats with a course of 400 mg TAA/kg B.W. every 24 hours and for 3 consecutive days. […] The animals were sacrificed in 6 and 12 hours after the 3rd treatment with TTA. TNF-α and IL-6 levels were measured in serum (ELISA test) after 12 hours post the third TAA injection and the results are reported in the following table.

TNF-α = assay: Serum TNF-α (ELISA) in TAA-treated Quinster rats given ammonium chloride per os; assay type: in vivo; details: 12 hours post the third TAA injection, mean ± SD
Method: as §1

hyaluronic acid = assay: Hyaluronic acid levels in treated Quinster rats; assay type: in vivo
Excerpt: The levels of hyaluronic acid in patients with high-grade hepatic damage are usually high, but they appeared decreased in the treated Quinster rats. Furthermore, additional biochemical factors appeared improved.

chronic hepatitis B = assay: Clinical treatment of a patient with chronic hepatitis B, viral charge; assay type: in vivo, human; details: 3 gr/day by the protocol, before treatment 1.65 × 10^6 IU/ml
Method: (§2) The above protocol of administration can be repeated several times until the completion of the treatment as judged by the clinician. For example, 21 cycles of treatment are performed, which complies with the natural time of regeneration of liver after a partial hepatectomy in patients. Therefore, the duration of the treatment can be from 1 to 6 months or from 3 to 4 months for patients with partial necrosis.
(§3) Patients were treated according to the above described protocol, using a dose of 3 gr/day.

hepatitis C = assay: Clinical treatment of a patient with hepatitis C, viral charge; assay type: in vivo, human; details: Patient B, 3 gr/day by the protocol, before treatment 1.65 × 10^8 IU/ml
Method: as §2, §3

Hepatitis Virus = assay: Use of NH4Cl in treating hepatitis virus, reduction of viral charge across patients; assay type: in vivo; details: in humans; Patients A and B, 3 months of treatment, 3 gr/day
Method: as §3

Cl.N [NH4Cl, ammonium chloride]
IL-6 (IL-6; Group II, at least 8 animals per group, Control 11 ± 5, Group I 58 ± 9): 69 ± 12 pg/dL
IL-6 (IL-6; Group III): 92 ± 8 pg/dL
IL-6 (IL-6; Group IV): 73 ± 12 pg/dL
TNF-α (TNF-α; Group II, Control 21 ± 4, Group I 65 ± 15): 52 ± 17 pg/dL
TNF-α (TNF-α; Group III): 32 ± 6 pg/dL
TNF-α (TNF-α; Group IV): 45 ± 9 pg/dL
levels of hyaluronic acid (hyaluronic acid): decreased
Viral charge after 3 months of treatment (chronic hepatitis B): 1.65 × 10^3 IU/ml
Viral charge after 3 months of treatment (hepatitis C): 1.65 × 10^6 IU/ml
factor of reduction of the viral charge (Hepatitis Virus): at least 10^2
